Measurements from PubChem BioAssay AID1845208 (Molecular Pharmacology Branch, DTP, NCI, 2023).
“And” between values parts separate entries of the source, which are not always exact repeats. Equal values may be shown once.

System: NCI-H196 SCLC complex tumor spheroid viability
Assay: Anticancer human tumor NCI-H196 cell line growth inhibition;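 note: spheroids exposed to compounds for 7 days before readout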;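 for viability, T/C: 100% = DMSO vehicle control wells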
Details: for viability, T/C: stronger effect = lower value
In short: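 Complex spheroids of malignant cells with endothelial cells and mesenchymal stem cells; agents alone or combined, from near clinical Cmax (or 10 microM if unknown) down in half-log steps, 0.25% DMSO final.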

[1] = curve of first compound, second compound 0.003 µM

Work on CNCc1ccc(-c2cc(-c3nc(-c4ccc(S(=O)(=O)C(C)C)cc4)cnc3N)on2)cc1 + COc1cc2c(cc1O)CCNC21CSC2c3c(OC(C)=O)c(C)c4c(c3C(COC1=O)N1C(O)C3Cc5cc(C)c(OC)c(O)c5C(C21)N3C)OCO4 yielded an IC50 (curve of first compound, second compound 30 pM) greater than 3 µM, an IC50 (curve of first compound, second compound 94.9 pM) greater than 3 µM and an IC50 (curve of first compound, second compound 0.0003 µM) greater than 3 µM. The IC50 (curve of first compound, second compound 0.000949 µM) was greater than 3 µM, the IC50 [1] was less than 0.00949 µM and the viability, T/C (second compound 30 pM, first compound 0.00949 µM) was 107%. For the same compound, the viability, T/C (second compound 30 pM, first compound 0.03 µM) was 99%, the viability, T/C (second compound 30 pM, first compound 0.0949 µM) was 104% and the viability, T/C (second compound 30 pM, first compound 0.3 µM) was 103%. The viability, T/C (second compound 30 pM, first compound 0.949 µM) was 98%, the viability, T/C (second compound 30 pM, first compound 3 µM) was 91.4% and the viability, T/C (second compound 94.9 pM, first compound 0.00949 µM) was 105%. It also gave a viability, T/C (second compound 94.9 pM, first compound 0.03 µM) of 107%, a viability, T/C (second compound 94.9 pM, first compound 0.0949 µM) of 103% and a viability, T/C (second compound 94.9 pM, first compound 0.3 µM) of 107%. For the same compound, the viability, T/C (second compound 94.9 pM, first compound 0.949 µM) was 96.4%, the viability, T/C (second compound 94.9 pM, first compound 3 µM) was 95.9% and the viability, T/C (second compound 0.0003 µM, first compound 0.00949 µM) was 112%. For the same compound, the viability, T/C (second compound 0.0003 µM, first compound 0.03 µM) was 112%, the viability, T/C (second compound 0.0003 µM, first compound 0.0949 µM) was 112% and the viability, T/C (second compound 0.0003 µM, first compound 0.3 µM) was 105%. It also gave a viability, T/C (second compound 0.0003 µM, first compound 0.949 µM) of 96.4%, a viability, T/C (second compound 0.0003 µM, first compound 3 µM) of 93.3% and a viability, T/C (second compound 0.000949 µM, first compound 0.00949 µM) of 99.2%. The viability, T/C (second compound 0.000949 µM, first compound 0.03 µM) was 103%, the viability, T/C (second compound 0.000949 µM, first compound 0.0949 µM) was 103% and the viability, T/C (second compound 0.000949 µM, first compound 0.3 µM) was 94.3%. It also gave a viability, T/C (second compound 0.000949 µM, first compound 0.949 µM) of 91.3%, a viability, T/C (second compound 0.000949 µM, first compound 3 µM) of 86.6% and a viability, T/C (second compound 0.003 µM, first compound 0.00949 µM) of 9.83%. It also gave a viability, T/C (second compound 0.003 µM, first compound 0.03 µM) of 26.7%, a viability, T/C (second compound 0.003 µM, first compound 0.0949 µM) of 27.7% and a viability, T/C (second compound 0.003 µM, first compound 0.3 µM) of 13.2%. The viability, T/C (second compound 0.003 µM, first compound 0.949 µM) was 18.2% and the viability, T/C (second compound 0.003 µM, first compound 3 µM) was 40.3%.
CC1COCCN1c1cc(-c2ccnn2C)c2ccnc(-c3ccn[nH]3)c2n1 (configuration not stated) was tested, and the viability, T/C (compound 0.0316 µM) was 85.4% and 90.9% and 88.6%, the viability, T/C (compound 0.1 µM) was 76.7% and 72.3% and 79.4% and the viability, T/C (compound 0.316 µM) was 65.1% and 66% and 67.1%. For the same compound, the viability, T/C (compound 1 µM) was 60.3% and 53.1% and 61.3%, the viability, T/C (compound 3.16 µM) was 53% (2×) and 49.1% and the viability, T/C (compound 10 µM) was 44.3% and 46.2% and 48.6%. For the same compound, the IC50 (curve of compound) was 4.36 µM and 2.77 µM and 7.31 µM.
Cc1sc2c(c1C)C(c1ccc(Cl)cc1)=NC(CC(=O)Nc1ccc(O)cc1)c1nnc(C)n1-2 (configuration not stated) + Cn1nnc2c(C(N)=O)ncn2c1=O showed an IC50 (curve of first compound, second compound 1 µM) of 0.589 µM, an IC50 (curve of first compound, second compound 3.16 µM) of 0.669 µM and an IC50 (curve of first compound, second compound 10 µM) of 0.716 µM. It also gave an IC50 (curve of first compound, second compound 31.6 µM) of 1.34 µM, an IC50 (curve of first compound, second compound 100 µM) of 2.45 µM and a viability, T/C (second compound 1 µM, first compound 0.00949 µM) of 102%. It also gave a viability, T/C (second compound 1 µM, first compound 0.03 µM) of 99.5%, a viability, T/C (second compound 1 µM, first compound 0.0949 µM) of 86.6% and a viability, T/C (second compound 1 µM, first compound 0.3 µM) of 68.1%. The viability, T/C (second compound 1 µM, first compound 0.949 µM) was 37.3%, the viability, T/C (second compound 1 µM, first compound 3 µM) was 21.1% and the viability, T/C (second compound 3.16 µM, first compound 0.00949 µM) was 103%. It also gave a viability, T/C (second compound 3.16 µM, first compound 0.03 µM) of 97.4%, a viability, T/C (second compound 3.16 µM, first compound 0.0949 µM) of 98.8% and a viability, T/C (second compound 3.16 µM, first compound 0.3 µM) of 75.5%. For the same compound, the viability, T/C (second compound 3.16 µM, first compound 0.949 µM) was 39%, the viability, T/C (second compound 3.16 µM, first compound 3 µM) was 23.3% and the viability, T/C (second compound 10 µM, first compound 0.00949 µM) was 105%. The viability, T/C (second compound 10 µM, first compound 0.03 µM) was 102%, the viability, T/C (second compound 10 µM, first compound 0.0949 µM) was 91.6% and the viability, T/C (second compound 10 µM, first compound 0.3 µM) was 69.1%. It also gave a viability, T/C (second compound 10 µM, first compound 0.949 µM) of 44%, a viability, T/C (second compound 10 µM, first compound 3 µM) of 27.6% and a viability, T/C (second compound 31.6 µM, first compound 0.00949 µM) of 108%. For the same compound, the viability, T/C (second compound 31.6 µM, first compound 0.03 µM) was 106%, the viability, T/C (second compound 31.6 µM, first compound 0.0949 µM) was 93.7% and the viability, T/C (second compound 31.6 µM, first compound 0.3 µM) was 87.1%. For the same compound, the viability, T/C (second compound 31.6 µM, first compound 0.949 µM) was 54.5%, the viability, T/C (second compound 31.6 µM, first compound 3 µM) was 34.9% and the viability, T/C (second compound 100 µM, first compound 0.00949 µM) was 115%. For the same compound, the viability, T/C (second compound 100 µM, first compound 0.03 µM) was 105%, the viability, T/C (second compound 100 µM, first compound 0.0949 µM) was 103% and the viability, T/C (second compound 100 µM, first compound 0.3 µM) was 85%. It also gave a viability, T/C (second compound 100 µM, first compound 0.949 µM) of 67% and a viability, T/C (second compound 100 µM, first compound 3 µM) of 46.4%.
Work on CC(C)n1c(=O)n(C)c2cnc3cc(F)c(-c4ccc(OCCCN5CCCCC5)nc4)cc3c21 + CC[C@@]1(O)C(=O)OCc2c1cc1n(c2=O)Cc2cc3c(CN(C)C)c(O)ccc3nc2-1 yielded an IC50 [1] greater than 10 µM, an IC50 (curve of first compound, second compound 0.00949 µM) greater than 10 µM and an IC50 (curve of first compound, second compound 0.03 µM) greater than 10 µM. For the same compound, the IC50 (curve of first compound, second compound 0.0949 µM) was greater than 10 µM, the IC50 (curve of first compound, second compound 0.3 µM) was greater than 10 µM and the viability, T/C (second compound 0.003 µM, first compound 0.0316 µM) was 102%. The viability, T/C (second compound 0.003 µM, first compound 0.1 µM) was 106%, the viability, T/C (second compound 0.003 µM, first compound 0.316 µM) was 105% and the viability, T/C (second compound 0.003 µM, first compound 1 µM) was 107%. It also gave a viability, T/C (second compound 0.003 µM, first compound 3.16 µM) of 110%, a viability, T/C (second compound 0.003 µM, first compound 10 µM) of 113% and a viability, T/C (second compound 0.00949 µM, first compound 0.0316 µM) of 105%. It also gave a viability, T/C (second compound 0.00949 µM, first compound 0.1 µM) of 107%, a viability, T/C (second compound 0.00949 µM, first compound 0.316 µM) of 109% and a viability, T/C (second compound 0.00949 µM, first compound 1 µM) of 112%. For the same compound, the viability, T/C (second compound 0.00949 µM, first compound 3.16 µM) was 110%, the viability, T/C (second compound 0.00949 µM, first compound 10 µM) was 103% and the viability, T/C (second compound 0.03 µM, first compound 0.0316 µM) was 102%. The viability, T/C (second compound 0.03 µM, first compound 0.1 µM) was 102%, the viability, T/C (second compound 0.03 µM, first compound 0.316 µM) was 104% and the viability, T/C (second compound 0.03 µM, first compound 1 µM) was 101%. For the same compound, the viability, T/C (second compound 0.03 µM, first compound 3.16 µM) was 95.9%, the viability, T/C (second compound 0.03 µM, first compound 10 µM) was 87.9% and the viability, T/C (second compound 0.0949 µM, first compound 0.0316 µM) was 116%. For the same compound, the viability, T/C (second compound 0.0949 µM, first compound 0.1 µM) was 113%, the viability, T/C (second compound 0.0949 µM, first compound 0.316 µM) was 104% and the viability, T/C (second compound 0.0949 µM, first compound 1 µM) was 86.5%. The viability, T/C (second compound 0.0949 µM, first compound 3.16 µM) was 74.9%, the viability, T/C (second compound 0.0949 µM, first compound 10 µM) was 71.9% and the viability, T/C (second compound 0.3 µM, first compound 0.0316 µM) was 110%. For the same compound, the viability, T/C (second compound 0.3 µM, first compound 0.1 µM) was 107%, the viability, T/C (second compound 0.3 µM, first compound 0.316 µM) was 108% and the viability, T/C (second compound 0.3 µM, first compound 1 µM) was 88.1%. For the same compound, the viability, T/C (second compound 0.3 µM, first compound 3.16 µM) was 78.5% and the viability, T/C (second compound 0.3 µM, first compound 10 µM) was 71.4%.
